Source: ChEMBL document CHEMBL1201862, “PubChem BioAssay data set” (2004)
Calls of active or inactive are those of the source.

Tests used:
[1] = target: T1, Ubiquitin-conjugating enzyme E2 N (Homo sapiens, UniProt P61088); format: functional
T1 sequence (P61088 whole entry): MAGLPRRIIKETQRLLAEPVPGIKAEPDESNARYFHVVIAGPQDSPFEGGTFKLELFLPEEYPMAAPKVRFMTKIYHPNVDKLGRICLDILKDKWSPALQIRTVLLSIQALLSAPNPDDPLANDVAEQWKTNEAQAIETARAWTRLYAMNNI

[2] = control 3'UTR Renilla luciferase suppression, dose response, counter-screen for Shn3 inhibitor project, cell-based, Clone20-Shn3RL, cherry-picked (AID 624133); format: functional
[3] = target: T2, Replicative DNA helicase DnaB (Mycobacterium tuberculosis, UniProt P9WMR3); experiment: DnaB intein splicing inhibitors, dose response, biochemical, cell-free fluorescence (AID 449749); format: functional
T2 sequence (P9WMR3 whole entry): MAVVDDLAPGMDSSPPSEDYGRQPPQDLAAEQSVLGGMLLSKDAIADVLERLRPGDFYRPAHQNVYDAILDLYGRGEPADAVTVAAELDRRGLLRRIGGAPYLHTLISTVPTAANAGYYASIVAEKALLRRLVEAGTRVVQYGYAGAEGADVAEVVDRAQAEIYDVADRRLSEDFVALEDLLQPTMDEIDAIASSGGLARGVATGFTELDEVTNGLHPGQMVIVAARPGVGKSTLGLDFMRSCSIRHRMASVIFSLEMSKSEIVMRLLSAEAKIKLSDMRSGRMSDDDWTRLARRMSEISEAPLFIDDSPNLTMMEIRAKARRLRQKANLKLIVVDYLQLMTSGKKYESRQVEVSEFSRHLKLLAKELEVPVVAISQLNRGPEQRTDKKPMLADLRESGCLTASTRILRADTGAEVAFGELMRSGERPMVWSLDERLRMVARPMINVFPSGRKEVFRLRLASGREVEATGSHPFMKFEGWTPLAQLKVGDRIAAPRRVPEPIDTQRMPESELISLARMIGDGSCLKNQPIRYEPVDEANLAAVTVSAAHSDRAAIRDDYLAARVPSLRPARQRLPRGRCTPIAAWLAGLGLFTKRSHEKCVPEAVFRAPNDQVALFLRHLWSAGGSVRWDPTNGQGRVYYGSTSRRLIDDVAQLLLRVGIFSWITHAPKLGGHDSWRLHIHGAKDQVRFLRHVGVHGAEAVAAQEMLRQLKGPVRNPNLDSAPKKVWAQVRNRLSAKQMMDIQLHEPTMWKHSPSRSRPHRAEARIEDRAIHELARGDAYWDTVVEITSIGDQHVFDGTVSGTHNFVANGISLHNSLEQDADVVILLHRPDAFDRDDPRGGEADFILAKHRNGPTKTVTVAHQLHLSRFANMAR

[4] = test system: Vero; experiment: Vero cell cytotoxicity, cytotoxicity control for flavivirus capping enzyme inhibitors (AID 588742); format: functional; conditions: Chlorocebus sabaeus
[5] = Intein inhibitors as potential Tuberculosis drugs, a cytotoxicity screen. [Related pubchem assays (depositor defined):AID2221, AID2223, AID434968, AID435010, AID449749, AID449750, AID489010]; format: functional
[6] = Shn3 3'UTR reporter inhibitors, dose response, cell-based, Clone20 osteoblasts, firefly luciferase, cherry-picked (AID 624132); format: functional;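 further: firefly luciferase luminescence from reporter carrying the Shn3 3'UTR in osteoblasts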
[7] = target: Hepatocyte nuclear factor 4-alpha (Homo sapiens, UniProt P41235); format: functional, cell-based;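 further: biochemical luminescence-based dose-response counterscreen measuring inhibition of HNF4 dimerization, run alongside a screen for blockers of ABHD5–perilipin-5 interaction; split luciferase complementation of HNF4 fusion proteins in cell lysate measuring dimerization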
[8] = target: T1, Ubiquitin-conjugating enzyme E2 N; format: functional; remark: listed apart in the source
[9] = target: Genome polyprotein (dengue virus type 2, UniProt P29990); experiment: Dengue-2 NS5 methyltransferase inhibitors, primary screen, biochemical, confirmation dose response (AID 588689); format: functional
[10] = target: T3, Protein RecA (Mycobacterium tuberculosis, UniProt P9WHJ3); experiment: Fluorescence Cell-Free Homogeneous Dose Retest to Identify Inhibitors of RecA-Intein Splicing Activity. [Related pubchem assays (depositor defined):AID2097, AID2223, AID489010, AID492950]; format: functional
T3 sequence (P9WHJ3 whole entry): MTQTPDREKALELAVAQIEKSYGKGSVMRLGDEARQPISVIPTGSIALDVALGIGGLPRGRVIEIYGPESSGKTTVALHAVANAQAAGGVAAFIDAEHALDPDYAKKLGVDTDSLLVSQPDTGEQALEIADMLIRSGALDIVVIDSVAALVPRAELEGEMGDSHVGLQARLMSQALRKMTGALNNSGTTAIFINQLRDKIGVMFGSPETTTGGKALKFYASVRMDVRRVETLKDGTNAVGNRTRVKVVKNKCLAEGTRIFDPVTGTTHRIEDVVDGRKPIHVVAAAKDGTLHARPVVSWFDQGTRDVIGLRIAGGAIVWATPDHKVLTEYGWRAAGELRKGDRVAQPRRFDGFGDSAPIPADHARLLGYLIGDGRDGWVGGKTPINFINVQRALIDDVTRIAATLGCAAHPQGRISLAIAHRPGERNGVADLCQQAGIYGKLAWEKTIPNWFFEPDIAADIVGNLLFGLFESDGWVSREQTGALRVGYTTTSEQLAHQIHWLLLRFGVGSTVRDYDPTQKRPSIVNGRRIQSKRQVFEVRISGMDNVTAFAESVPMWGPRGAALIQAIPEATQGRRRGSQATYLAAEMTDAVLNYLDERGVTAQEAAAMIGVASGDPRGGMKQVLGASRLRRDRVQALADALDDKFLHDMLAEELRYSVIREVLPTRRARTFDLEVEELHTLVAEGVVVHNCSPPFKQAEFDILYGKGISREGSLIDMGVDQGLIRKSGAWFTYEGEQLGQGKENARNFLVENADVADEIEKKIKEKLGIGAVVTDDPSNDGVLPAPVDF

[11] = target: T4, Bcl-2-related protein A1 (Mus musculus, UniProt Q07440); format: functional;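 further: confirmatory dose–response counterscreen on Bfl-1, used to check hits from a UBC13 polyubiquitin inhibitor campaign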
T4 sequence (Q07440 whole entry): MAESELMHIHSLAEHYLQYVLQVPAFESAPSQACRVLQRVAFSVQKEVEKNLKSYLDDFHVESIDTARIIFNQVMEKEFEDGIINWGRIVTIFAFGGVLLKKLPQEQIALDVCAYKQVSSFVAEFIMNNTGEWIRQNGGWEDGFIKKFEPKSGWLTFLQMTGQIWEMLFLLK

[12] = target: Voltage-dependent T-type calcium channel subunit alpha-1H (Homo sapiens, UniProt O95180); experiment: Cav3.2 T-type channel inhibitors, synthesized analogs, SAR follow-up, cell-based, synthetic library set 2, HEK293 HH8, Fluo-4 (AID 493023); format: functional
[13] = target: Peroxisome proliferator-activated receptor gamma/Nuclear receptor coactivator 1 (Homo sapiens, UniProt P37231); format: functional;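 further: agonist potency as compounds enhance coactivator SRC-1 recruitment to PPARgamma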
[14] = target: Peroxisome proliferator-activated receptor gamma/Nuclear receptor coactivator 2 (Homo sapiens, UniProt P37231); format: functional;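 further: agonist potency for raising coactivator recruitment to the receptor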
[15] = test system: HEK293; experiment: cells; conditions: Homo sapiens
[16] = inhibitors of intracellular T. cruzi replication, confirmation, NIH3T3 host cells, beta-gal luminescence (AID 2044); format: functional, cell-based;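 further: intracellular parasites grown in NIH/3T3 mouse fibroblasts as host cells; luminescent beta-galactosidase reporter signal from transgenic T. cruzi replicating inside host cells; inhibitors lower the luminescence signal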
[17] = target: Hexokinase-1 (Homo sapiens, UniProt P19367); experiment: hexokinase 1 activators, dose response, selectivity assay for HKDC1 activator project, biochemical (AID 504762); format: functional
[18] = target: T5, Heat shock factor protein 1 (Mus musculus, UniProt P38532); experiment: HSF1 potentiators in luciferase reporter cells, confirmation, cell-based, NIH3T3, luminescence, dose retest (AID 435004); format: functional;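 further: stress induced by proteasome inhibitor MG132 added 30 min after compound; luciferase reporter driven by HSF1 response element in NIH3T3 cells; actives raise luminescence as potentiators of the MG132 stress response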
T5 sequence (P38532 whole entry): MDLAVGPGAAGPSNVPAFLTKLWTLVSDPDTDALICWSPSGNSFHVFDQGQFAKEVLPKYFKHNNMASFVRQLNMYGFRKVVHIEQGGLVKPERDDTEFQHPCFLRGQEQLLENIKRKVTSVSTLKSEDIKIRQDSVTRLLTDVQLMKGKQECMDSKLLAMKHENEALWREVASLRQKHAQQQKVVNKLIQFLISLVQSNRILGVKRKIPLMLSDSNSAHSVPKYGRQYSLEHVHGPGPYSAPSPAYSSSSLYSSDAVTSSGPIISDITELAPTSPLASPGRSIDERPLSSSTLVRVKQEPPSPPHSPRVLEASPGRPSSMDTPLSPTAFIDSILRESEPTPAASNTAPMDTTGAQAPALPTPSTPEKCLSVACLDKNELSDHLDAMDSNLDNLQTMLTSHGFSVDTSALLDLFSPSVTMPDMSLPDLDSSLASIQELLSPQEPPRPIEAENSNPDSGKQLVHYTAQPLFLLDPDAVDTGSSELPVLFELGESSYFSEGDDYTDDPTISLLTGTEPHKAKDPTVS

[19] = target: T6, Hexokinase HKDC1 (Homo sapiens, UniProt Q2TB90); experiment: HKDC1 hexokinase activators, dose response, biochemical, W721R variant (AID 504730); format: functional
T6 sequence (Q2TB90 whole entry): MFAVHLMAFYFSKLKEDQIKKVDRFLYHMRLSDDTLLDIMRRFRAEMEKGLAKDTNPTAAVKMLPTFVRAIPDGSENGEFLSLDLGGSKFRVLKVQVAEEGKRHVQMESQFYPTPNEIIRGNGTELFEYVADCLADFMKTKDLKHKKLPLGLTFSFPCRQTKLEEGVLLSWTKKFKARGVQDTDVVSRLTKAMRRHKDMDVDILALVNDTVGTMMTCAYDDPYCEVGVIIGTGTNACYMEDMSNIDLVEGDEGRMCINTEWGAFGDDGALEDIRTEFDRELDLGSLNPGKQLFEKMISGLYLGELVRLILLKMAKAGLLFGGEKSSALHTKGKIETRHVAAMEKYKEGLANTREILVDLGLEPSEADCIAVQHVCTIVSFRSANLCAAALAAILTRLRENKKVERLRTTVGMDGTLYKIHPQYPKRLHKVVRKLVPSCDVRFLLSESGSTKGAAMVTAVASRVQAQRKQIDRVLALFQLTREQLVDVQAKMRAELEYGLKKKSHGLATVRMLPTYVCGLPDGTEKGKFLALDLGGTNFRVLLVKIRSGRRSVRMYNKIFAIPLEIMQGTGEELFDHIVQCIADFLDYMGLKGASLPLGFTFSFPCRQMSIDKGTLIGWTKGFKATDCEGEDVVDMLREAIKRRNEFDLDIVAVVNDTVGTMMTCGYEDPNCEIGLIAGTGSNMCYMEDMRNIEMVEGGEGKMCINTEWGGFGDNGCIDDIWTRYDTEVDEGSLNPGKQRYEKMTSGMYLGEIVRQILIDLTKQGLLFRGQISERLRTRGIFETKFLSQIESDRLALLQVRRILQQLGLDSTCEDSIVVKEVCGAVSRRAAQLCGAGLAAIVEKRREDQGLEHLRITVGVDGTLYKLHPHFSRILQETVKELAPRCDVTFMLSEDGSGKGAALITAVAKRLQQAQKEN

[20] = test system: HEK293; experiment: cells; conditions: Homo sapiens; remark: listed apart in the source
[21] = target: Peroxisome proliferator-activated receptor gamma/Nuclear receptor coactivator 3 (Homo sapiens, UniProt P37231); format: functional;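 further: agonist potency for raising coactivator recruitment to the receptor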
[22] = target: T7, Coagulation factor XII (Homo sapiens, UniProt P00748); experiment: Factor XIIa Dose Response Confirmation from Single Well HTS. [Related pubchem assays (depositor defined):AID701]; format: functional
T7 sequence (P00748 whole entry): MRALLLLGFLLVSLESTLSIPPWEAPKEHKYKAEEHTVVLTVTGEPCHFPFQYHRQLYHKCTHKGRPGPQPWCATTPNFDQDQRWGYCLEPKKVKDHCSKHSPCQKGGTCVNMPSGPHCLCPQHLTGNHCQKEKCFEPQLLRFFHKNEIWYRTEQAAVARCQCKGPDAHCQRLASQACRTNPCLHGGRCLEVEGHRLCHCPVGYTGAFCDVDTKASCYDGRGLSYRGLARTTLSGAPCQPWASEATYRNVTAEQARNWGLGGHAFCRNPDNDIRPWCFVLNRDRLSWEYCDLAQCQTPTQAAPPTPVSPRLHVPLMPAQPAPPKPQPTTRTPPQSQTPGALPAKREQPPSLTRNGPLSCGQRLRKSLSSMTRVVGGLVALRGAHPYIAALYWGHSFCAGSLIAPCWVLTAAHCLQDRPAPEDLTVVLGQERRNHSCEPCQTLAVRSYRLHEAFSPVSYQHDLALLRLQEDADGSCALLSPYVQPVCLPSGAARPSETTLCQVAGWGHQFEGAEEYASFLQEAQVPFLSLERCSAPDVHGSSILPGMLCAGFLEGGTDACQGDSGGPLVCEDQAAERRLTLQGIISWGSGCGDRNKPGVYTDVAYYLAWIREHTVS

Genome polyprotein, sequence (P29990 2492-3391 limits assumed): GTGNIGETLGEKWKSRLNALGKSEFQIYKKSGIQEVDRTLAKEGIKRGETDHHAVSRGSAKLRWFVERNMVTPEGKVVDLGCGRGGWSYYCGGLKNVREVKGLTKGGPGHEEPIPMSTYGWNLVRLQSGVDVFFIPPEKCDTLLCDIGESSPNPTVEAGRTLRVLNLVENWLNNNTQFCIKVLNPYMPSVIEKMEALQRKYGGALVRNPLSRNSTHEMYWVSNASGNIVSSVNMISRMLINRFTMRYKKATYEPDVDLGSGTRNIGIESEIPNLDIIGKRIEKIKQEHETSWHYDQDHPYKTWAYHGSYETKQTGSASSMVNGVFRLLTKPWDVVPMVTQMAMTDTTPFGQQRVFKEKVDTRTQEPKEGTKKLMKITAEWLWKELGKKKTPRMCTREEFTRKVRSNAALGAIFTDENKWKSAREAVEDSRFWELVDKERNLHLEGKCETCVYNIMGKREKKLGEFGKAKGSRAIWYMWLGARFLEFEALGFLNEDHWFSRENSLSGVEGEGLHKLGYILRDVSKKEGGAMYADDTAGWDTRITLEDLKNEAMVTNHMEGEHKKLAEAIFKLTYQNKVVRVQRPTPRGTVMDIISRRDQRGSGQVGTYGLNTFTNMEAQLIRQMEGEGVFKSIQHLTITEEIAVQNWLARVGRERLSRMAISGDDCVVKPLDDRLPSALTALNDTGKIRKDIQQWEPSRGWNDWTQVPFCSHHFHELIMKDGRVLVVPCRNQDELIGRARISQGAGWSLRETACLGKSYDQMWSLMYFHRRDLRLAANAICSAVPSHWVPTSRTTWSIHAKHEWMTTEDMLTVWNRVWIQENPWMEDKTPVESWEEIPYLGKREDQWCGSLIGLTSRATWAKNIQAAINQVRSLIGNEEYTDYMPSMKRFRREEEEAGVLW
Voltage-dependent T-type calcium channel subunit alpha-1H, sequence (O95180 whole entry): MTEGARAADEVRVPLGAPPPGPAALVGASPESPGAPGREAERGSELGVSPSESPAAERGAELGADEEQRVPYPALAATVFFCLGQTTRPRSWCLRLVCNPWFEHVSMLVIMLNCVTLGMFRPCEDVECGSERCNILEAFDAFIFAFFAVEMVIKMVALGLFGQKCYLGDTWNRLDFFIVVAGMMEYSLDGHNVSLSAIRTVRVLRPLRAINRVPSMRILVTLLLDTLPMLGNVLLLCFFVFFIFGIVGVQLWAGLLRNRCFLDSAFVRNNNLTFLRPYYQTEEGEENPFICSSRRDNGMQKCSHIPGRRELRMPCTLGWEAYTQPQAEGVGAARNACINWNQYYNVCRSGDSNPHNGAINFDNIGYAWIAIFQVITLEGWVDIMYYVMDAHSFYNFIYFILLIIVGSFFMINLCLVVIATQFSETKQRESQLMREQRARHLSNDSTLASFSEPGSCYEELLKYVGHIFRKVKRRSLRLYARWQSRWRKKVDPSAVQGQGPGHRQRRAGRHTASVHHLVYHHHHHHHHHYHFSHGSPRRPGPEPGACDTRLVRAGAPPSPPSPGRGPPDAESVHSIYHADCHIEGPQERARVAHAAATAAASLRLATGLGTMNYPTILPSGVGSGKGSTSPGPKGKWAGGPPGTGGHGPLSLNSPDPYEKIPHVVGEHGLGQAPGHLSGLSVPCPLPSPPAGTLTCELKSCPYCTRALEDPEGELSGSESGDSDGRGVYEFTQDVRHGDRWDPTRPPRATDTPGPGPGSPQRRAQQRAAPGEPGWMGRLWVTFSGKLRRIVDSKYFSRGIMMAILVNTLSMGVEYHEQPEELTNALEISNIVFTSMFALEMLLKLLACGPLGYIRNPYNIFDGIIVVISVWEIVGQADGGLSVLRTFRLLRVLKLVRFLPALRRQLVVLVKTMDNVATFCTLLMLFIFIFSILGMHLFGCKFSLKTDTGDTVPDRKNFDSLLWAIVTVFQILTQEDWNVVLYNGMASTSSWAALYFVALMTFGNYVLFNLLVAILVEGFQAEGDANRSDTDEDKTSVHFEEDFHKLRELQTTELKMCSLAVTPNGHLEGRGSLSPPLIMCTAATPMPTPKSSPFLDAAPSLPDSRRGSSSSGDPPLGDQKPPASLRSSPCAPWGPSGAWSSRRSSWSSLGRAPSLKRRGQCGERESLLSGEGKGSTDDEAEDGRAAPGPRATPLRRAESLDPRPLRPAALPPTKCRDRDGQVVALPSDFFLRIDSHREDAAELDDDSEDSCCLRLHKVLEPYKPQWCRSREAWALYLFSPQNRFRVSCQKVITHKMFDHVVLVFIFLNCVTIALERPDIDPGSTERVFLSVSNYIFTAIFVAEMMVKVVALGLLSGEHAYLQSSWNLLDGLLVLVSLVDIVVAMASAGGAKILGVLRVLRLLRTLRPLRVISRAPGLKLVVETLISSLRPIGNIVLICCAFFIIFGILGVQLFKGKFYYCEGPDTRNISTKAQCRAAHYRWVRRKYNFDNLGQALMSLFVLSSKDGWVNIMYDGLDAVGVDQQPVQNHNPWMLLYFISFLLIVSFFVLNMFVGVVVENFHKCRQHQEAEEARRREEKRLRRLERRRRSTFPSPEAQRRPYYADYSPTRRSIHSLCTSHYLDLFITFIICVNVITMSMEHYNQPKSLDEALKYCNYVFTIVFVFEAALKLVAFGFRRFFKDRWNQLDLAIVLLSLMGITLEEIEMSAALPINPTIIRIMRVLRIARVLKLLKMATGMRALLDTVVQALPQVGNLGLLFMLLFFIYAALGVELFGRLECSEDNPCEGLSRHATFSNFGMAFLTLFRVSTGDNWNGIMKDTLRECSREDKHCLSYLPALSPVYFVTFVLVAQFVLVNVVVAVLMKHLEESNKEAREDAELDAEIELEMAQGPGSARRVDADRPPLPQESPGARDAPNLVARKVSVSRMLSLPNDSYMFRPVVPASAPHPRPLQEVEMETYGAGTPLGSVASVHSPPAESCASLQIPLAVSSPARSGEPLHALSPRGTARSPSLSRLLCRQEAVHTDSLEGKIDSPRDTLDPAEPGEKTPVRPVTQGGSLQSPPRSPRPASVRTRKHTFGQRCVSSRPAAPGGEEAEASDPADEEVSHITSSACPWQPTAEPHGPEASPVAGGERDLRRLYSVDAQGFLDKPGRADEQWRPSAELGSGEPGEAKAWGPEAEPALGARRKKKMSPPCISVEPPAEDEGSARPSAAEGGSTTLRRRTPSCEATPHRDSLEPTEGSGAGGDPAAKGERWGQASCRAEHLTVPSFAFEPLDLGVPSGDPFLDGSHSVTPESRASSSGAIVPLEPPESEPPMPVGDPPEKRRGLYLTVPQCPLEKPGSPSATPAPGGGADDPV
Hepatocyte nuclear factor 4-alpha, sequence (P41235 whole entry, the tested form may be a part): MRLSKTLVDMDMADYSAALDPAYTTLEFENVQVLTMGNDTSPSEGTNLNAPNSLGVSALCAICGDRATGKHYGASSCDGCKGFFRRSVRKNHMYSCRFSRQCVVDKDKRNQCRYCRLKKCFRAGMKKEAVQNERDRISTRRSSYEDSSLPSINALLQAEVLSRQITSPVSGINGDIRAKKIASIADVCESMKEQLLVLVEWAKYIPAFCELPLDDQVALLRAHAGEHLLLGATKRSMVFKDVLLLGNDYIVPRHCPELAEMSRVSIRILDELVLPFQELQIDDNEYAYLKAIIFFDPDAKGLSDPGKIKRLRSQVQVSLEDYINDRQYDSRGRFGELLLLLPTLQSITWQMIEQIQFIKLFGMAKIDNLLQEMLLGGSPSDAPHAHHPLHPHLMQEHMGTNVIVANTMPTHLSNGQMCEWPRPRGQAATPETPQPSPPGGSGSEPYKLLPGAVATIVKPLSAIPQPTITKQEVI
Hexokinase-1, sequence (P19367 whole entry): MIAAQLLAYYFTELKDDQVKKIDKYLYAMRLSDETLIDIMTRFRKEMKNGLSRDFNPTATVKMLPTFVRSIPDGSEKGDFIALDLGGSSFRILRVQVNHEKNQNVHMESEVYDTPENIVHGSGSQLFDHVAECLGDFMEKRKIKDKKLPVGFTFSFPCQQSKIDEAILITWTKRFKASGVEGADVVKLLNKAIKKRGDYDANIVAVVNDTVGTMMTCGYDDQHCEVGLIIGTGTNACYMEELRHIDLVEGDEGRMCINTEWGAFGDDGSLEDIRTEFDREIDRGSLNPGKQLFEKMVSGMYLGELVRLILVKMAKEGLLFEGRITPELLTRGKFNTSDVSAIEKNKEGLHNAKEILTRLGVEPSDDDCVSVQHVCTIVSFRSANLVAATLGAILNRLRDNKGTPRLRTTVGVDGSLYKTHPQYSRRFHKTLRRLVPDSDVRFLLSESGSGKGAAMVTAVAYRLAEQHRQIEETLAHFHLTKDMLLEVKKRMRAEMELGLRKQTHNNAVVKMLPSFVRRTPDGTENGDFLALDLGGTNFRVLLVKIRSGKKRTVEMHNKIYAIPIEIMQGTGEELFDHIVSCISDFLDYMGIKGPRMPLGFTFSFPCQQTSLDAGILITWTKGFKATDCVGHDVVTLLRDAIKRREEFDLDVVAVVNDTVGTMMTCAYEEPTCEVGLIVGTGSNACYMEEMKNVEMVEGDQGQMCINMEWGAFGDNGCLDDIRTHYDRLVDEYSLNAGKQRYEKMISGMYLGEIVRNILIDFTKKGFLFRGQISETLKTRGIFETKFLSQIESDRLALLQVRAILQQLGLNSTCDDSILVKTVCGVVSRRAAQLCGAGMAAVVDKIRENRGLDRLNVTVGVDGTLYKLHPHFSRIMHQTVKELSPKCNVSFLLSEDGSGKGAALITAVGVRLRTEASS

For `Cc1ccc(CS(=O)(=O)c2ncc(Cl)c(C(=O)Nc3nnc(C(C)C)s3)n2)cc1`, the IC50 [1] was 10.7 µM (active), the AC50 [2] was 4.07 µM (active) and the AC50 [3] was 2.95 µM (active). For the same molecule, the CC50 [4] was 29.1 µM (active), the CC50 [5] was 28.3 µM (active) and the AC50 [6] was 1.52 µM (active). For the same molecule, the IC50 [7] was 3.27 µM (active), the IC50 [8] was > 20 µM (inactive) and the IC50 [9] was > 100 µM (active). For the same molecule, the EC50 [10] was 0.717 µM (active) and the IC50 [11] was > 20 µM (inactive).
For `O=C(NC1CCC2CN(Cc3ccccc3)CC21)c1ccc(Cl)cc1Cl` (configuration not stated), the EC50 [12] was 10 µM (active).
In the case of `O=C(CSc1cccc2cccnc12)N/N=C/c1cccnc1`, the EC50 [13] is reported as > 79.4 µM (not active), the EC50 [14] is reported as > 79.4 µM (not active) and the EC50 [15] is reported as > 59.6 µM (inactive). For the same molecule, the EC50 [16] was 0.579 µM (active), the EC50 [17] was > 80 µM (inactive) and the EC50 [18] was 6.99 µM (active). For the same molecule, the EC50 [19] was 27.6 µM (inactive), the EC50 [20] was > 59.6 µM (inactive) and the EC50 [21] was > 79.4 µM (not active).
For `COC(=O)[C@H](C)NC(=O)NC(C)CCc1ccccc1` (some centres not stated), the IC50 [22] was > 50 µM (inactive).
